Patent US9816074B2, “Methods and compositions for modulating nuclease-mediated genome engineering in hematopoietic stem cells” (Sangamo BioSciences, Inc., priority 2014, dated 2017)
Where two headings read alike, the source gives them in different places.

Assays:
Type in all cases: cell-based
Human mPB CD34+ cells [1] = assay: Flow cytometry of HSPC multipotency markers (CD34, CD133, CD90, CD49f, CD166, CD38, CD45RA); conditions: for CD90 expression (percent of CD90+ cells, FIG. 2A): nicotinamide 2.5 mM, TEPA 5 μM, addition at 1 day post thawing, vs control; for CD90 expression (FIG. 3A): dmPGE2 10 μM, SR1 1 μM, 17 days, addition 1 day post thawing; for CD49f expression (FIG. 3C) / CD133 expression (FIG. 3B): compared to controls, 17 day culture; for CD34 expression compared to controls (FIG. 3D): for the duration of the experiment (17 days)
Protocol: Human mPB CD34+ cells were cultured ex vivo in CC110 media for 3 days with or without VPA, nicotinamide or TEPA. Various cell surface markers are enriched on CD34+ subpopulations that contain true LT-HSCs. Measurement of such cell surface markers can therefore be used as a proxy for the number of LT-HSCs in the culture. In particular, CD90, CD133, CD49f, CD38, and CD166 can be used to assay LT-HSC number (Notta et al. (2011) Science 333(6039):218-21; Chitteti et al. (2014) Blood 124(4):519-29), with the LT-HSCs generally residing in the CD90+CD133+CD49f+CD38-low CD166+ pool. Accordingly, cells were stained using fluorescently-tagged antibodies against the HSPC multipotency markers CD34 (PE-Cy7), CD133 (PE), CD90 (APC), and CD49f (PerCP) and analyzed by flow cytometry.
Human mPB CD34+ cells were cultured ex vivo in CC110 media for 17 days. Cells were then stained using fluorescently-tagged antibodies against the HSPC multipotency markers CD34 (PE-Cy7), CD133 (PE), CD90 (APC), and CD49f (PerCP) and analyzed by flow cytometry as described above.
Human mPB-derived cells were cultured as described above in the presence or absence of VPA (1.25 mM) and 5 mM lithium chloride (Li) and cells assayed for primitive cell surface markers as described above.
CD34+ cells were cultured ex vivo in CC110 media with 100 ng/mL IL-6 for 8 days in the presence or absence of VPA, lithium, nucleases and donors. VPA and Li were added prior to nucleases and/or donors (which can be added in any order). Briefly, CD34+ cells were thawed and cultured for approximately […] before addition of VPA and Li and cultured again (e.g., 1-2 days) before addition of a donor. Nucleases (e.g., ZFN mRNA) were added 0.5 to 1 day later and VPA/Li washed out at the same time. After at least a day, cells were then stained using fluorescently-tagged antibodies against the HSPC multipotency markers CD34 (PE-Cy7), CD133 (PE), CD90 (APC), and CD49f (PerCP) and analyzed by flow cytometry.
CD34+ cells were cultured ex vivo in CC110 media as described above for approximately 6 days in the presence or absence of VPA, lithium, nucleases and donors. VPA and Li were added after to nucleases and/or donors (which can be added in any order). Briefly, CD34+ cells were thawed and cultured for approximately 2-3 days before addition of a donor. Nucleases (e.g., ZFN mRNA) were added 0.5 to 1 day after transfection with the donor. The donor was a SA-IL2RG partial corrective cDNA transgene at IL2RG intron 1 and the zinc-finger nucleases (ZFN) were SBS #s 44271/44298 delivered by BTX electroporation. VPA/Li was added 1 day after addition of the ZFN mRNA. After approximately 3 days, cells were then stained using fluorescently-tagged antibodies against the HSPC multipotency markers CD34 (PE-Cy7), CD133 (PE), CD90 (APC), and CD49f (PerCP) and analyzed by flow cytometry.
(§1) Human mPB CD34+ cells were cultured ex vivo in CC110 media with or without 100 ng/mL IL-6 in the presence of VPA (1.25 mM or 2.5 mM) and 5 mM lithium chloride (Li) for 4 (blue lines—added at 4 days post thawing of the cells) or 7 days (red line—added at 1 day post thawing).
The presence of IL-6 was capable of enhancing the expression of CD49f with extended culture. […] In a further experiment, human mPB CD34+ cells were cultured ex vivo in CC110 media in the presence of VPA (1.25 mM) plus LiCl (5 mM) with or without 100 ng/mL IL-6 for 7 days.
After 7 days in culture cells were stained using fluorescently-tagged antibodies against the HSPC multipotency marker CD166 (PE) and analyzed by flow cytometry. VPA+Li increased the overall fraction of CD166+ cells.
Human mPB CD34+ cells were cultured ex vivo in CC110 media with 100 ng/mL IL-6 in the presence or absence of VPA (1.25 mM) plus LiCl (5 mM) for 6 days.

Human mPB CD34+ cells [2] = assay: Cell density / proliferative capacity in culture; conditions: for cell density / growth (FIG. 3F): extended culture, 17 days
From the text: (§2) No change in culture cell density was seen after VPA addition compared to controls in genome modified mPB HSPCs (FIG. 6F).
The presence of IL-6 was capable of enhancing the expression of CD49f with extended culture. […]

Human mPB CD34+ cells [3] = assay: Cell viability by flow cytometry in the presence of propidium iodide
Protocol: as §2, §1

Human mPB CD34+ cells [4] = assay: Methylcellulose assays (colony forming units) on CD34+ cell cultures
CD34+ cells = assay: CRISPR/Cas nuclease modification with VPA (as Example 3, CRISPR/Cas in place of ZFNs); conditions: introduced before, concurrently and/or after the CRISPR/Cas nuclease systems
Protocol: Experiments are conducted as described in Example 3 using CRISPR/Cas nucleases in place of ZFNs (e.g., specific for any gene such as IL2, HPRT, etc.), with and without donors.

[5] = VPA 1.25 mM added 1 day post thawing
[6] = compared to controls after 14 days of in vitro differentiation
[7] = 14 days of in vitro differentiation

NCCNCCNCCNCCN [TEPA, tetraethylenepentamine]
CD90 expression (percent of CD90+ cells, FIG. 2A) (Human mPB CD34+ cells [1]; VPA 1.25 mM): No effect

CCCCC(C)(C)[C@H](O)/C=C/[C@H]1[C@H](O)CC(=O)[C@@H]1C/C=C\CCCC(=O)O [dmPGE2, 16,16-dimethyl Prostaglandin E2]
CD90 expression (FIG. 3A) (Human mPB CD34+ cells [1]; VPA 1.25 mM, CC110 media): No effect | cell density / growth (FIG. 3F) (Human mPB CD34+ cells [2]): slight growth advantage | cell viability (FIG. 3E) (Human mPB CD34+ cells [3]; extended culture, 17 days): no effect on cell viability

CCCC(CCC)C(=O)O [VPA, valproic acid]
level of CD90 expression, VPA added at day 1 vs day 4 (Human mPB CD34+ cells [1]): higher level | marker expression after VPA washout and genome modification (Human mPB CD34+ cells [1]; Example 3C): retained high CD90, CD34, CD133 and CD49f expression | CD49f expression compared to controls (Human mPB CD34+ cells [1]; VPA 1.25 mM + LiCl 5 mM, 7 days): increased | time to peak of CD90 expression after addition (FIG. 2A) (Human mPB CD34+ cells [1]; [5]): ≤ 2 days | time to peak of CD90 expression after addition (FIG. 3A) (Human mPB CD34+ cells [1]; [5]): ≤ 2 days | CD90 expression (FIG. 3A) (Human mPB CD34+ cells [1]; VPA 1.25 mM, CC110 media): dramatically increased | CD90 expression (percent of CD90+ cells, FIG. 2A) (Human mPB CD34+ cells [1]; VPA 1.25 mM): dramatically increased | fraction of CD34+CD133+CD90+CD49f+ cells (Human mPB CD34+ cells [1]; VPA 1.25 mM, CC110 media, 3 days, controls 14.4%): 85.9% | proportion of CD34+CD133+ cells (Human mPB CD34+ cells [1]; VPA 1.25 mM, CC110 media, 3 days, controls 51.7%): 93.1% | level of CD133, CD90 and CD49f expression, VPA added at day 1 vs day 4 (Human mPB CD34+ cells [1]; VPA + 5 mM Li): higher level | marker expression after VPA washout and genome modification (Human mPB CD34+ cells [1]; addition after extended culture (Example 3B)): retained high CD90, CD34, CD133 and CD49f expression | CD49f expression (FIG. 3C) (Human mPB CD34+ cells [1]): increased CD49f expression for up to 15 days | CD133 expression (FIG. 3B) (Human mPB CD34+ cells [1]): increased | fraction of cells unresponsive to VPA stimulation between days 1 and 4 post thawing (CD133, CD90 and CD49f expression) (Human mPB CD34+ cells [1]; day 1 vs day 4 addition): ~15% | fraction of cells unresponsive to VPA stimulation between days 1 and 4 post thawing, CD49f (Human mPB CD34+ cells [1]; day 1 vs day 4 addition): ~15% | fraction of cells unresponsive to VPA stimulation between days 1 and 4 post thawing, CD90 (Human mPB CD34+ cells [1]; day 1 vs day 4 addition): ~20% | fraction of cells unresponsive to VPA stimulation between days 1 and 4 post thawing, CD133 (Human mPB CD34+ cells [1]; day 1 vs day 4 addition): ~15% | CD34 expression, VPA added at day 1 vs day 4 post-thawing (Human mPB CD34+ cells [1]; extended culture): increased CD34 expression | CD34 expression compared to controls (FIG. 3D) (Human mPB CD34+ cells [1]): retained elevated CD34 expression | dose dependence of CD49f expression (Human mPB CD34+ cells [1]; increasing VPA): No significant dose dependence | dose dependence of CD90 expression (Human mPB CD34+ cells [1]; increasing VPA): dose dependence | dose dependence of CD34 expression (Human mPB CD34+ cells [1]; increasing VPA doses (1.25 mM, 2.5 mM)): slight dose dependence | myeloid or erythroid differentiation capacity (FIG. 2C) (Human mPB CD34+ cells [4]; [6]): no significant difference | myeloid or erythroid differentiation capacity (FIGS. 3G and 3H) (Human mPB CD34+ cells [4]; [6]): no significant difference | cell growth, VPA at day 4 compared to day 1 (Human mPB CD34+ cells [2]): cell growth advantage | cell growth potential at 2.5 mM VPA (Human mPB CD34+ cells [2]; 2.5 mM VPA): decreased cell growth potential | initial proliferative capacity (Human mPB CD34+ cells [2]; Example 6, VPA administration): slightly decreased proliferative capacity | proliferative capacity after 7 days in culture (Human mPB CD34+ cells [2]; Example 6, VPA administration): recovered | culture cell density (FIG. 6F) (Human mPB CD34+ cells [2]; after VPA addition compared to controls, genome modified mPB HSPCs): No change | cell density / growth (FIG. 3F) (Human mPB CD34+ cells [2]): slightly decreased proliferative capacity | cell growth at lower doses of VPA (Human mPB CD34+ cells [2]; lower doses than 2.5 mM): did not affect cell growth as substantially | CRISPR/Cas induced nuclease modification (CD34+ cells): enhances | cell viability (FIG. 3E) (Human mPB CD34+ cells [3]): no loss of cell viability | cell viability after VPA addition compared to controls (FIG. 6E) (Human mPB CD34+ cells [3]): no increased loss of cell viability | overall cell viability with VPA (Human mPB CD34+ cells [3]): slightly lower viability | recovery of cell viability following VPA administration (Human mPB CD34+ cells [3]): initial delay in recovery | viability after VPA addition, before genome modification (FIG. 5E) (Human mPB CD34+ cells [3]): no decrease in viability | viability after genome modification (FIG. 5E) (Human mPB CD34+ cells [3]): significant viability loss | viability after genome modification (FIG. 6E) (Human mPB CD34+ cells [3]): significant loss of viability

IL-6: cytokine added to CC110 media at 100 ng/mL
VPA-increased HSC multipotency marker expression in the presence of IL-6 (Human mPB CD34+ cells [1]; 100 ng/mL IL-6): enhanced | expression of CD49f in the presence of IL-6 (Human mPB CD34+ cells [1]; 100 ng/mL IL-6, extended culture with VPA+Li): enhancing | overall cell density with or without IL-6 (Human mPB CD34+ cells [2]; 100 ng/mL IL-6, VPA+Li cultures): higher overall cell density in the absence of IL-6

NC(=O)c1cccnc1 [nicotinamide]
CD90 expression (percent of CD90+ cells, FIG. 2A) (Human mPB CD34+ cells [1]; VPA 1.25 mM): No effect

CC(C)n1cnc2c(NCCc3ccc(O)cc3)nc(-c3csc4ccccc34)nc21 [SR1, StemRegenin 1]
CD90 expression (FIG. 3A) (Human mPB CD34+ cells [1]; VPA 1.25 mM, CC110 media): No effect | CD49f expression (FIG. 3C) (Human mPB CD34+ cells [1]): increased expression compared to both controls and VPA after 17 days in culture | CD133 expression (FIG. 3B) (Human mPB CD34+ cells [1]): decreased expression | CD34 expression compared to VPA (FIG. 3D) (Human mPB CD34+ cells [1]; extended culture): higher expression | CD34 expression compared to controls (FIG. 3D) (Human mPB CD34+ cells [1]): retained elevated CD34 expression | erythroid burst-forming units (BFU-E) (Human mPB CD34+ cells [4]; [7]): increased | granulocyte and megakaryocyte colony-forming units (CFU-GM) (Human mPB CD34+ cells [4]; [7]): increased | cell density / growth (FIG. 3F) (Human mPB CD34+ cells [2]): slight growth advantage | cell viability (FIG. 3E) (Human mPB CD34+ cells [3]): no effect on cell viability
